Experimental data from ChEMBL document CHEMBL4417629, “Inhibitors of RAD52 Recombination Protein and Methods Using Same” (2018).
Activity calls are given as the source filed them. No cut-off for these calls is given here.

Tests used:
[1] = biological target: T1, DNA repair protein RAD52 homolog (Homo sapiens) (UniProt P43351); experiment: Inhibition of RAD52 (unknown origin) assessed as inhibition of DNA pairing using [32P]-ssDNA by measuring D-loop formation incubated for 15 mins by gel electrophoresis method
T1 sequence (whole entry): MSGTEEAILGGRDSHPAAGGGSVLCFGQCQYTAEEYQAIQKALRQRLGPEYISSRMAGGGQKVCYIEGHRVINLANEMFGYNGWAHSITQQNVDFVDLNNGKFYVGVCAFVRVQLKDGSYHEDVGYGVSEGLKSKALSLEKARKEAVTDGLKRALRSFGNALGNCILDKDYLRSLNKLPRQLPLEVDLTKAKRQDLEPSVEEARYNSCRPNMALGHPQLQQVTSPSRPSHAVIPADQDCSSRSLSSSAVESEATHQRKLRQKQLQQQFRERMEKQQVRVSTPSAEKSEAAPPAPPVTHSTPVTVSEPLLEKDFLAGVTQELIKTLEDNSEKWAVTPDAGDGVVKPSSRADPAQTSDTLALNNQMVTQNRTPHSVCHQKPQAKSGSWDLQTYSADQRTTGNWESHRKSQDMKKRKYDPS

[2] = biological target: T2, DNA repair protein RAD51 homolog 1 (Homo sapiens) (UniProt Q06609); experiment: Inhibition of RAD51 (unknown origin) assessed as inhibition of DNA pairing by measuring D-loop formation between [32P]-ssDNA and homologous supercoiled pUC19 DNA at 10 times RAD52 IC50 incubated for 15 mins by gel electrophoresis method relative to control
T2 sequence (whole entry): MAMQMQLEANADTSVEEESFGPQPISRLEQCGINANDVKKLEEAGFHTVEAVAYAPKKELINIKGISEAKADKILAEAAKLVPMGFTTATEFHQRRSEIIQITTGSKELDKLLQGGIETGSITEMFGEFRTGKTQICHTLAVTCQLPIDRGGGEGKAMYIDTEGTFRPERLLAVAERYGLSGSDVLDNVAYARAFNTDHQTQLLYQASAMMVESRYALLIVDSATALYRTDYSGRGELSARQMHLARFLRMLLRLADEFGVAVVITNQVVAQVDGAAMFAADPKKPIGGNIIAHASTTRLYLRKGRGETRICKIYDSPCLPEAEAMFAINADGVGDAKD

[3] = biological target: T2, DNA repair protein RAD51 homolog 1 (Homo sapiens); experiment: Inhibition of RAD51 (unknown origin) assessed as inhibition of DNA pairing by measuring D-loop formation between [32P]-ssDNA and homologous supercoiled pUC19 DNA at 30 uM incubated for 15 mins by gel electrophoresis method relative to control
Homo sapiens = organism: Homo sapiens; experiment: Growth inhibition of BRCA1-deficient human UWB1.289 cells at 2.5 to 10 uM following media refreshment every 3 days and measured on day 10 by CellTiter-Glo assay; format: functional
CAPAN-1 = experiment: Growth inhibition of BRCA2-deficient human Capan1 cells at 2.5 to 10 uM following media refreshment every 3 days and measured on day 10 by CellTiter-Glo assay; format: functional, cell-based

Compound	inhibition [1]	inhibition [2]	inhibition [3]	growth inhibition (GI) (Homo sapiens)	growth inhibition (GI) (CAPAN-1)
Cc1c(C(=O)Nc2ccc(S(=O)(=O)N(C)C3CCN(C)CC3)cc2)oc2c(Cl)cccc12	Dose-dependent effect	97.5%	> 90%	–	–
CCN1CCN(CCCNC(=S)Nc2ccc3nc(N(C)CCN)cc(C)c3c2)CC1	Dose-dependent effect	111%	> 90%	–	–
CCCCN(CC)CCNC(=O)c1cc2c(-c3ccc(Cl)cc3)nn(C)c2s1	Dose-dependent effect	58.6%	> 90%	Active	Active
Cn1nc(-c2ccc(Cl)cc2)c2cc(C(=O)NCCCN3CCCC3)sc21	Dose-dependent effect	35.3%	> 90%	–	–
Cc1cc(N2CCN(C)CC2)nc2ccc(NC(S)=NCCCN3CCN(C)CC3)cc12	Dose-dependent effect	112%	> 90%	–	–
CCCN(CCC)CCCNC(=S)Nc1ccc2nc(N3CCN(C)CC3)cc(C)c2c1	Dose-dependent effect	111%	> 90%	–	–
Cc1ccc(-c2nc(C(=O)NCCCN3CCOCC3)cc3c2[nH]c2ccccc23)cc1	Dose-dependent effect	73.6%	> 90%	–	–
CCN(CC)CCCN(Cc1cc2cc3c(cc2nc1O)OCO3)C(S)=NCCCN(C)C	Dose-dependent effect	102%	> 90%	–	–
